This note sets out measurements from US9630961B2, “Arginine methyltransferase inhibitors and uses thereof” (Epizyme, Inc., priority 2013, dated 2017).

The target in the assay is T1, PRMT3 (Homo sapiens, UniProt O60678).
T1 construct: GST-tagged PRMT3; made in house; host or cells: E. coli BL21(DE3) Gold
As to the kind of experiment: PRMT3 Biochemical Assay (3H-SAM Flashplate, peptide substrate). Conditions: 30 min preincubation, room temperature. An excerpt: S-adenosylmethionine (SAM), S-adenosylhomocysteine (SAH), bicine, Tween20, dimethylsulfoxide (DMSO), bovine skin gelatin (BSG), isopropyl-β-D-thiogalactopyranoside (IPTG), and Tris(2-carboxyethyl)phosphine hydrochloride solution (TCEP) were purchased from Sigma-Aldrich at the highest level of purity possible. ^3H-SAM was purchase from American Radiolabeled Chemicals with a specific activity of 80 Ci/mmol. 384-well streptavidin Flashplates were purchased from PerkinElmer.
Peptide containing the classic RMT substrate motif was synthesized with an N-terminal linker-affinity tag motif and a C-terminal amide cap by 21st Century Biochemicals. The peptide was purified by high-performance liquid chromatography (HPLC) to greater than 95% purity and confirmed by liquid chromatography mass spectrometry (LC-MS). The sequence was Biot-Ahx-[…]-amide (SEQ ID NO.:11).
Full-length human PRMT3 (NM_005788.3) isoform 1 transcript clone was amplified from an HEK 293 cDNA library and subcloned into pGEX-KG (GE Life Sciences). The resulting construct encodes an N-terminal GST tag and a thrombin cleavage sequence ([…] […] […] […]) (SEQ ID NO.: 12) fused directly to Cys 2 of PRMT3.
E. coli (BL21(DE3) Gold, Stratagene) made competent by the CaCl2 method were transformed with the PRMT3 construct and ampicillin selection. Protein over-expression was accomplished by growing the PRMT3 expressing E. coli clone and inducing expression with 0.3 mM IPTG at 16° C. The culture was grown for 12 hours, harvested by centrifugation, and stored at −80° C. for purification.
GST-tagged PRMT3 eluted with 25-400 mM phosphate in buffer C. Protein was concentrated and buffer was exchanged to 20 mM Tris, 150 mM NaCl, 5% glycerol, 5 mM β-mercaptoethanol, pH7.8 by ultrafiltration. The purity of recovered protein was 70%.
General Procedure for PRMT3 Enzyme Assays on Peptide Substrates.
The assays were all performed in a buffer consisting of 20 mM Bicine (pH=7.6), 1 mM TCEP, 0.005% BSG, and 0.002% Tween 20, prepared on the day of use. Compounds in 100% DMSO (1 ul) were spotted into a polypropylene 384-well V-bottom plates (Greiner) using a Platemate Plus outfitted with a 384-channel head (Thermo Scientific). DMSO (1 ul) was added to Columns 11, 12, 23, 24, rows A-H for the maximum signal control and 1 ul of SAH, a known product and inhibitor of PRMT3, was added to columns 11, 12, 23, 24, rows I-P for the minimum signal control. A cocktail (40 ul) containing the PRMT3 enzyme was added by Multidrop Combi (Thermo-Fisher). The compounds were allowed to incubate with PRMT3 for 30 min at room temperature, then a cocktail (10 ul) containing SAM and peptide was added to initiate the reaction (final volume=51 ul). The final concentrations of the components were as follows: PRMT3 was 0.5 nM, ^3H-SAM was 100 nM, non-radiolabeled SAM was 1.8 uM, peptide was 330 nM, SAH in the minimum signal control wells was 1 mM, and the DMSO concentration was 2%. The assays were stopped by the addition of potassium chloride (10 ul) to a final concentration of 100 mM. 50 ul of the reaction in the 384-well polypropylene plate was then transferred to a 384-well Flashplate and the biotinylated peptides were allowed to bind to the streptavidin surface for at least 1 hour before being washed once with 0.1% Tween20 in a Biotek ELx405 plate washer. The plates were then read in a PerkinElmer TopCount plate reader to measure the quantity of ^3H-labeled peptide bound to the Flashplate surface, measured as disintegrations per minute (dpm) or alternatively, referred to as counts per minute (cpm).
Where dpm=disintegrations per minute, cmpd=signal in assay well, and min and max are the respective minimum and maximum signal controls.
Where top and bottom are the normally allowed to float, but may be fixed at 100 or 0 respectively in a 3-parameter fit. The Hill Coefficient normally allowed to float but may also be fixed at 1 in a 3-parameter fit. […]

T1 sequence (O60678 with tags, fused parts or gaps): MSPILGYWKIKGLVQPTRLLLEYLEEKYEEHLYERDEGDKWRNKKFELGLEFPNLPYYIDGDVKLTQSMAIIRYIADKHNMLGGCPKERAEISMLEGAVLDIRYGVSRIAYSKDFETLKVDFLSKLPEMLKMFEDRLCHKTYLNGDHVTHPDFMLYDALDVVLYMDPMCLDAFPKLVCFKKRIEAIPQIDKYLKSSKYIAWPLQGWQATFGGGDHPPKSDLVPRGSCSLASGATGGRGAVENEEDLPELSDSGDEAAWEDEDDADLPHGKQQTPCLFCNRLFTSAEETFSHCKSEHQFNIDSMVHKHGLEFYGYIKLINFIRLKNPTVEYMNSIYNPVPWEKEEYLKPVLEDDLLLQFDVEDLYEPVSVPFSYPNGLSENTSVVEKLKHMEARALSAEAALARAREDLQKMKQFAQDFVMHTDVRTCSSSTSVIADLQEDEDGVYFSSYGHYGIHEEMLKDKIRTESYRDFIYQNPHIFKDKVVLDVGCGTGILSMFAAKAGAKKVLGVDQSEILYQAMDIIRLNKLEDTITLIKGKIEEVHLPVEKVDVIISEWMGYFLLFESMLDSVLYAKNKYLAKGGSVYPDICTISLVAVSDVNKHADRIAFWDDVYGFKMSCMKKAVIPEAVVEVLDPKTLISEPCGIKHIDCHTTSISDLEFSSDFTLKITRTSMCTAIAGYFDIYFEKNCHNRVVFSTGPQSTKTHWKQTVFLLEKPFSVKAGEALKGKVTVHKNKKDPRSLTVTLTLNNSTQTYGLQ

Consider `CN(CCN)Cc1c[nH]nc1-c1ccsc1` [Compound 3], for which the IC50 fell in the range of 3.01 to 10 µM.

`CN(CCN)Cc1c[nH]nc1-c1cncnc1` [Compound 4] registered an IC50 of at least 10 µM.

Take `CN(CCN)Cc1c[nH]nc1-c1cccs1` [Compound 5]: the IC50 was at least 10 µM.

Regarding `CN(CCN)Cc1c[nH]nc1-c1ccco1` [Compound 6], the IC50 lay within 3.01 to 10 µM.

`CN(CCN)Cc1c[nH]nc1-c1ccoc1` [Compound 7] came in with an IC50 of at least 10 µM.

Consider `CN(CCN)Cc1c[nH]nc1-c1cnn(C)c1` [Compound 8], for which the IC50 is at least 10 µM.

The compound `CN(CCN)Cc1c[nH]nc1-c1ccc2scnc2c1` [Compound 9] gave an IC50 of 3.01 to 10 µM.

`Cc1noc(C)c1-c1n[nH]cc1CN(C)CCN` [Compound 10] had an IC50 of at least 10 µM.

As to `COc1ncc(-c2n[nH]cc2CN(C)CCN)cn1` [Compound 11], the IC50 was at least 10 µM.

Take `CN(CCN)Cc1c[nH]nc1-c1cn[nH]c1` [Compound 12]: the half-maximal inhibitory concentration (IC50) was at least 10 µM.

`CN(CCN)Cc1c[nH]nc1-c1cnc2[nH]ccc2c1` [Compound 13] gave an IC50 of 1.01 to 3 µM.

As for `CN(CCN)Cc1c[nH]nc1-c1cc[nH]n1` [Compound 14], the IC50 was at least 10 µM.

Consider `CN(CCN)Cc1c[nH]nc1-c1ccnn1C` [Compound 15], for which the IC50 is at least 10 µM.

Take `CCn1cc(-c2n[nH]cc2CN(C)CCN)cn1` [Compound 16]: the IC50 fell in the range of 3.01 to 10 µM.

`CN(CCN)Cc1c[nH]nc1-c1cnn(-c2ccccc2)c1` [Compound 17] had an IC50 of 3.01 to 10 µM.

`CN(CCN)Cc1c[nH]nc1-c1cnn(CCO)c1` [Compound 18] gave an IC50 of at least 10 µM.

In turn, `CN(CCN)Cc1c[nH]nc1-c1ccc2cnn(C)c2c1` [Compound 19, N^1-methyl-N^1-((3-(1-methyl-1H-indazol-6-yl)-1H-pyrazol-4-yl)methyl)ethane-1,2-diamine] had a half-maximal inhibitory concentration (IC50) of 3.01 to 10 µM.

Compound `CN(CCN)Cc1c[nH]nc1-c1ccc2ncnn2c1` [Compound 20] registered an IC50 of 3.01 to 10 µM.

For `CN(CCN)Cc1c[nH]nc1-c1ccc2nccn2c1` [Compound 21, N^1-((3-(imidazo[1,2-a]pyridin-6-yl)-1H-pyrazol-4-yl)methyl)-N^1-methylethane-1,2-diamine], the IC50 was 3.01 to 10 µM.

Consider `CC(C)n1cc(-c2n[nH]cc2CN(C)CCN)cn1` [Compound 22], for which the IC50 was 3.01 to 10 µM.

`CC(C)Cn1cc(-c2n[nH]cc2CN(C)CCN)cn1` [Compound 23, N^1-((2′-isobutyl-3,4′-bi(1H-pyrazol)-4-yl)methyl)-N^1-methylethane-1,2-diamine] displayed an IC50 of 3.01 to 10 µM.

`CN(CCN)Cc1c[nH]nc1-c1cnn(Cc2ccccc2)c1` [Compound 24, N^1-((1′-benzyl-3,4′-bi(1H-pyrazol)-4-yl)methyl)-N^1-methylethane-1,2-diamine] came in with an IC50 of 3.01 to 10 µM.
